Where two headings read alike, the source gives them in different places.
Columns and labels:
[1] = system: FGF-R, PDGF-R, or EGF-R; settings: for example FGF-R; cited from earlier work
[2] = target: IR (Homo sapiens, UniProt P06213); settings: cited from earlier work
[3] = phase I, patients with multiple myeloma; cited from earlier work
[4] = target: Akt1 (Homo sapiens, UniProt P31749); settings: cited from earlier work
[5] = system: Mek; settings: cited from earlier work
[6] = system: MAPK1/2; settings: cited from earlier work
[7] = system: PKA; settings: cited from earlier work
[8] = system: colon cancer cell lines; test: Anchored 2x7 combination viability screen (CellTiter-Glo, 72 h), colon cancer cell lines; format: cell-based; settings: in combination with MK-2206, colon; compared with Linsitinib+MK-2206
Method: To screen efficiently we used a 2×7 concentration matrix, or “anchored” approach. We screened each anchor compound at two optimised concentrations and a discontinuous 1,000-fold (7-point) dose-response curve of the library compound. Viability was read out after 72 h of drug treatment using CellTiter-Glo and drug responses for single agent and combination responses were fitted. […] The combination was screened in both anchor and library orientations, the first named compound being the anchor compound.

[9] = system: PKC; settings: cited from earlier work
[10] = system: Akt1/2, Aurora A/B,B-Raf, CDK2, and EGFR; settings: cited from earlier work
[11] = target: IGF1R (Homo sapiens, UniProt P08069); settings: assay format not stated; cited from earlier work
[12] = target: insulin receptor (IR) (Homo sapiens, UniProt P06213); settings: assay format not stated; cited from earlier work
[13] = target: Akt3 (Homo sapiens, UniProt Q9Y243); settings: assay format not stated; cited from earlier work
[14] = target: Akt2 (Homo sapiens, UniProt P31751); settings: assay format not stated; cited from earlier work
[15] = target: SRC (Homo sapiens, UniProt P12931); settings: cell-free assays; cited from earlier work
[16] = target: ABL T3151 (Homo sapiens, UniProt P00519, T315I); settings: cell-free assays; cited from earlier work
[17] = target: LYN (Homo sapiens, UniProt P07948); settings: cell-free assays; cited from earlier work
[18] = weekly 1-hr IV infusions; patients with solid tumours or multiple myeloma; cited from earlier work

Akt1, sequence (P31749 whole entry): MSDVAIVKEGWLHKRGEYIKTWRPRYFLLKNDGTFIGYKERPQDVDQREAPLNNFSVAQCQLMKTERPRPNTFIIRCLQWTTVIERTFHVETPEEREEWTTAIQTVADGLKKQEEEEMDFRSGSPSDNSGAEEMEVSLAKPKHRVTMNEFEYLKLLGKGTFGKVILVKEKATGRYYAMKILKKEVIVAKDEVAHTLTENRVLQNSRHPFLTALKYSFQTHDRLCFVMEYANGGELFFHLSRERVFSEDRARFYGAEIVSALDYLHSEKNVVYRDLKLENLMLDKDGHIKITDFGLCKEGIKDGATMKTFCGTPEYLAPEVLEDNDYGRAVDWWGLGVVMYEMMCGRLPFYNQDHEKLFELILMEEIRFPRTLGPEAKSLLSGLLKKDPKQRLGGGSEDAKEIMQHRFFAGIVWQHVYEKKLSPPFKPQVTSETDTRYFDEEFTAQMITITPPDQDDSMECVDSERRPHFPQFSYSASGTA
SRC, sequence (P12931 whole entry): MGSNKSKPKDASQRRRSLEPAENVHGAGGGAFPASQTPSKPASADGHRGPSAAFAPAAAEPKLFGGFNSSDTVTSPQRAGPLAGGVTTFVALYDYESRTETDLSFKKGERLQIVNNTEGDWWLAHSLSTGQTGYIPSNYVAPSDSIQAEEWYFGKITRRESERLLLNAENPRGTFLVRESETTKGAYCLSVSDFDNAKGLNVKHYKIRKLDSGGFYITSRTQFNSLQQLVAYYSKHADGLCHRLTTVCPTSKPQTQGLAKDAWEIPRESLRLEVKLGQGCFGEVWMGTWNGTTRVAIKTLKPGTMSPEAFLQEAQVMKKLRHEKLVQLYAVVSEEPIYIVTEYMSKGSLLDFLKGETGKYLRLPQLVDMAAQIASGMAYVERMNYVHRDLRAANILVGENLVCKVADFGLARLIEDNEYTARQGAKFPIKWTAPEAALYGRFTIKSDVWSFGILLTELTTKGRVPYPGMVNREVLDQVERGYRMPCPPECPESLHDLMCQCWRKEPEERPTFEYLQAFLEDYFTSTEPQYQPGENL
Akt2, sequence (P31751 whole entry): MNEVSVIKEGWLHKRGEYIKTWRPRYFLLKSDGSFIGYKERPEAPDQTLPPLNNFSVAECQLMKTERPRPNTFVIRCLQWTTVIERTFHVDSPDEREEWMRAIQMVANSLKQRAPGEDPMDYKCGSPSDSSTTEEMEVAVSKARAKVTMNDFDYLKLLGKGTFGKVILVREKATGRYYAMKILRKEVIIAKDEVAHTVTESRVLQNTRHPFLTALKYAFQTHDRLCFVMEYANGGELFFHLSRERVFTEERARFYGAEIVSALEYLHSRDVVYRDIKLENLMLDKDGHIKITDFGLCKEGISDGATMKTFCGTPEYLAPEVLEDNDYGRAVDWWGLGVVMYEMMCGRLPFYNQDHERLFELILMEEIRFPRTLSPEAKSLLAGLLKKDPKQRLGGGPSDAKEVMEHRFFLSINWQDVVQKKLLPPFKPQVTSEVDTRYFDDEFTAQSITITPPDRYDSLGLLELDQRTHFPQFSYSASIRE
IR, sequence (P06213 28-1382): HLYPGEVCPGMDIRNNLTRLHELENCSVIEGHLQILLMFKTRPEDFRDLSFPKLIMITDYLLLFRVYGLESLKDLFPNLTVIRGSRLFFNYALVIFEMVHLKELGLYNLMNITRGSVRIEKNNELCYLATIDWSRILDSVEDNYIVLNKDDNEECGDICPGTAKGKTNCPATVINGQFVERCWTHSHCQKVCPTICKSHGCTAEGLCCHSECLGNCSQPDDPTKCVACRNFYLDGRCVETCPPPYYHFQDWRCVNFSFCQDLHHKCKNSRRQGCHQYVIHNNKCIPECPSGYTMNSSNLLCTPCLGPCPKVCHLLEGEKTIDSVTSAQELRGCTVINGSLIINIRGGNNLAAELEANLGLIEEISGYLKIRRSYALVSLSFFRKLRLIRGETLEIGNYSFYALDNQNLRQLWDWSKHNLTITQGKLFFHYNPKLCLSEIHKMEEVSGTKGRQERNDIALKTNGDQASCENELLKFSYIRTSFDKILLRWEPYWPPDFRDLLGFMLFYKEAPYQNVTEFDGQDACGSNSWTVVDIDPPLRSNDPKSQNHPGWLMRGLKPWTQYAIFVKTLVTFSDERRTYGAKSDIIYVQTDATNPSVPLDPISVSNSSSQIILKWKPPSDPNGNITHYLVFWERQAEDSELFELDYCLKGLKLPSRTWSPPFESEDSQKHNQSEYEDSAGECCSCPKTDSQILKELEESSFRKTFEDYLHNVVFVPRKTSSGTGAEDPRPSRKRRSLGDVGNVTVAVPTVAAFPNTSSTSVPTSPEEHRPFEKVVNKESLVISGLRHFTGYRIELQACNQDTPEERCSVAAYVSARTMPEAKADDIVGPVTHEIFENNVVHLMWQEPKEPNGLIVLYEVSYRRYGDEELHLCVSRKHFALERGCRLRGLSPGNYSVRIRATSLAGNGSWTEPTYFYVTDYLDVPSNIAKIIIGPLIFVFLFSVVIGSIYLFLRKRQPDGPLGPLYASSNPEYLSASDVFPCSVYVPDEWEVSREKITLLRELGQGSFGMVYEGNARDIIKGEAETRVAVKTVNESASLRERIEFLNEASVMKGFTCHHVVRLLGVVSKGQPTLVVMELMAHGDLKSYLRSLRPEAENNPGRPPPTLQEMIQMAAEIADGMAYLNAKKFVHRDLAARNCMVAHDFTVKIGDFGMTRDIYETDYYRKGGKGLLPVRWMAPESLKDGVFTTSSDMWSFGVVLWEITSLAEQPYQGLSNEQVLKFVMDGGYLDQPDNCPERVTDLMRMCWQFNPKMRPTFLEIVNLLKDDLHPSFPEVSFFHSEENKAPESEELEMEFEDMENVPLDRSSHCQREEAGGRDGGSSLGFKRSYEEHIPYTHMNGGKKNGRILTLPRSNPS
insulin receptor (IR), sequence (P06213 28-1382): as above
LYN, sequence (P07948 whole entry, the tested form may be a part): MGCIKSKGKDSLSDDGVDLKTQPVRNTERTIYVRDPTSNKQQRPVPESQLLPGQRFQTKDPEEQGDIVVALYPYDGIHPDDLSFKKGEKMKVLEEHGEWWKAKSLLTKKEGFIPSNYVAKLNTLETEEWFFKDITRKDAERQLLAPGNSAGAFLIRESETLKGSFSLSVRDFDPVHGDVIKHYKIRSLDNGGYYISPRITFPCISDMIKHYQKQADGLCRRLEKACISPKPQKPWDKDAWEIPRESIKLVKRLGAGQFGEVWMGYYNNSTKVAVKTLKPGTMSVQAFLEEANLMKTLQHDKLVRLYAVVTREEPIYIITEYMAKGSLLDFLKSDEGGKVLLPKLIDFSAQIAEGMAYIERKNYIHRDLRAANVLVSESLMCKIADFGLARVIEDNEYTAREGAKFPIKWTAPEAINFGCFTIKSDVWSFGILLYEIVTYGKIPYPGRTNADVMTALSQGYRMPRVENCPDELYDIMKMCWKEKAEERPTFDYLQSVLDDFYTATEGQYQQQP
IGF1R, sequence (P08069 31-1367): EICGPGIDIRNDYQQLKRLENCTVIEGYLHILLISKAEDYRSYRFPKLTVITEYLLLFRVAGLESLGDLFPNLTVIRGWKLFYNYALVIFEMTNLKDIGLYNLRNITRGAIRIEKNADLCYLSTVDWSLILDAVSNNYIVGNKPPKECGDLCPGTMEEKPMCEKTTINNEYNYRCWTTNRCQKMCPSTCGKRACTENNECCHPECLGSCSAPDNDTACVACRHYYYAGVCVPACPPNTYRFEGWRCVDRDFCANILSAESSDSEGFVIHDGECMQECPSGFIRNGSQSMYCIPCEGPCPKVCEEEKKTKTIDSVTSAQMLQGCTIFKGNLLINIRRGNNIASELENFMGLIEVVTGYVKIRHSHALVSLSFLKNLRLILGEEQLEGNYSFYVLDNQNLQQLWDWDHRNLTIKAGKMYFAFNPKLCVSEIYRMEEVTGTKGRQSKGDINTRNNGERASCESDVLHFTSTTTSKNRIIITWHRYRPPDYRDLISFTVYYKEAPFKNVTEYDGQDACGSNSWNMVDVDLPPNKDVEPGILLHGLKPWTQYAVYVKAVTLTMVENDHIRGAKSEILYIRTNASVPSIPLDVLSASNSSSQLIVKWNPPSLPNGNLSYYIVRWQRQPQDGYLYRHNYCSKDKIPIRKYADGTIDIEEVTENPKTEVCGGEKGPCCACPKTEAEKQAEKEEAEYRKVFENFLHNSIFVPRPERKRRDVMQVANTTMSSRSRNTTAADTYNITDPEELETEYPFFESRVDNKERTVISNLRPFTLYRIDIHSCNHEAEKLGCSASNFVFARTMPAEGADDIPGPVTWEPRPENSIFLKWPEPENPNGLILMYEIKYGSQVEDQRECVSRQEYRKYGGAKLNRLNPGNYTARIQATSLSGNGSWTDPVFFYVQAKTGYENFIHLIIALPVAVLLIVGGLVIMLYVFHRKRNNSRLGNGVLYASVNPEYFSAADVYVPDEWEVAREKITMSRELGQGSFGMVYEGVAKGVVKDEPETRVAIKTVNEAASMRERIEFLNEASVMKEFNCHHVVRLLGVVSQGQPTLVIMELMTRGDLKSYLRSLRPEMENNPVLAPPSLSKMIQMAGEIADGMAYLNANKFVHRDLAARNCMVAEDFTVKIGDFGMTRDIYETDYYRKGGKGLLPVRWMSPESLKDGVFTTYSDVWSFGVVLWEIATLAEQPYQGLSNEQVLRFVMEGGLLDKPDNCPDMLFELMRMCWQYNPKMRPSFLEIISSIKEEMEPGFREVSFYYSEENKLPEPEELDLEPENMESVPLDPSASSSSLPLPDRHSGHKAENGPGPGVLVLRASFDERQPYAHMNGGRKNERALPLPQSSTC

Q: Which results are given for COc1cc([C@@H]2c3cc4c(cc3[C@H](O)[C@H]3COC(=O)[C@@H]23)OCO4)cc(OC)c1OC [AXL-1717, (5R,5aR,8aS,9R)-5-hydroxy-9-(3,4,5-trimethoxyphenyl)-5a,6,8a,9-tetrahydro-5H-[2]benzofuro[5,6-f][1,3]benzodioxol-8-one]?
A: inhibition of tyrosine phosphorylation of a selected panel of receptors less related to IGF-IR (in words) [1]: does not co-inhibit; inhibition of tyrosine phosphorylation of the IR (in words) [2]: does not co-inhibit

Q: With Cn1ncc(Cl)c1-c1cc(C(=O)N[C@H](CN)Cc2cccc(F)c2)sc1Cl [Afuresertib, N-[(1S)-1-(aminomethyl)-2-(3-fluorophenyl)ethyl]-5-chloro-4-(4-chloro-2-methyl-pyrazol-3-yl)thiophene-2-carboxamide] as the compound, how does the “maximum tolerated dose (MTD)” value [3] read?
A: Its value is 125 mg per day.

Q: Which “activity for Akt1 (in words)” value [4] does the source give for Cc1cc(N2CCOCC2)cc2[nH]c(-c3c(NC[C@@H](O)c4cccc(Cl)c4)cc[nH]c3=O)nc12 [BMS-536924] here?
A: The value was “very little activity”.

Q: What about the IC50 [5] of the same compound?
A: Its IC50 is 182 nM.

Q: And the “activity for MAPK1/2 (in words)” value [6]?
A: The value was “very little activity”.

Q: What does the source list for C[C@@]1(C(=O)Nc2ccc(F)nc2)CCCN1c1nc(Nc2cc(C3CC3)[nH]n2)c2cccn2n1 [BMS-754807, 1-[4-[(5-cyclopropyl-1H-pyrazol-3-yl)amino]pyrrolo[2,1-f][1,2,4]triazin-2-yl]-N-(6-fluoro-3-pyridyl)-2-methyl-pyrrolidine-2-carboxamide]?
A: activity to PKA (in words) [7]: little activity; synergy and activity of the IGF1Ri combined with MK-2206 (in words) [8]: much lower; activity to PKC (in words) [9]: little activity

Q: With CCc1cc(Nc2nccc(-c3c(-c4ccc(OC)c(C(=O)Nc5c(F)cccc5F)c4)nc4ccccn34)n2)c(OC)cc1N1CCC(N2CCN(S(C)(=O)=O)CC2)CC1 [GSK1904529A, N-(2,6-difluorophenyl)-5-[3-[2-[5-ethyl-2-methoxy-4-[4-(4-methylsulfonylpiperazin-1-yl)-1-piperidyl]anilino]pyrimidin-4-yl]imidazo[1,2-a]pyridine-2-yl]-2-methoxy-benzamide] as the compound, how does the “selectivity for IGF1R/IR than Akt1/2, Aurora A/B, B-Raf, CDK2, and EGFR” value [10] read?
A: The value was > 100 fold.

Q: Which IC50 [11] does the source give for Cc1ccsc1C(=O)Nc1cc(CN2CCN(C(=O)CO)CC2)ccc1/C=C/c1n[nH]c2ccccc12 [KW-2450] here?
A: Its IC50 is 7.39 nM.

Q: What about the IC50 [12] of the same compound?
A: The IC50 was 5.64 nM.

Q: Which results are given for C[C@]1(O)C[C@@](N)(c2ccc(-c3nc4n(c3-c3ccccc3)COc3ccncc3-4)cc2)C1 [TAS-117, 3-amino-1-methyl-3-[4-(5-phenyl-8-oxa-3,6,12-triazatricyclo[7.4.0.0^2,6]trideca-1(9),2,4,10,12-pentaen-4-yl)phenyl]cyclobutan-1-ol]?
A: IC50 ([4]; assay format not stated): 4.8 nM; IC50 [13]: 44 nM; IC50 [14]: 1.6 nM

Q: What does the source list for CC(C)c1cc(CNc2nc(Nc3cc(C4CC4)[nH]n3)cc(N3CCN(C)CC3)n2)on1 [XL228, N4-(5-cyclopropyl-1H-pyrazol-3-yl)-N2-[(3-isopropylisoxazol-5-yl)methyl]-6-(4-methylpiperazin-1-yl)pyrimidine-2,4-diamine]?
A: IC50 [15]: 6.1 nM; IC50 [16]: 1.4 nM; IC50 [17]: 2 nM; maximum tolerated dose (MTD) [18]: 6.5 mg/kg
